{"source": "patent EP4205737A1", "about": "“COMPOSITION FOR PREVENTION, AMELIORATION, OR TREATMENT OF INFLAMMATORY DISEASES OR IMMUNE DISEASES COMPRISING GANCAONIN N AS ACTIVE INGREDIENT” (UNIVERSITY-INDUSTRY COOPERATION GROUP OF KYUNG HEE …, priority 2020, dated 2022)", "key": {"IL-1β [1]": {"test_system": "IL-1β", "experiment": "Real-time PCR of IL-1β mRNA in LPS-stimulated A549 cells", "type": "cell-based, human", "settings": "LPS 5 ug/mL, 5 to 40 µM, 24 hours, effect proportional to amount (FIG. 3B)", "experimental": "(§1) A549 cells were dispensed into 6-well plates (1 × 10^6 cells/well) and cultured under conditions of 37°C and 5% CO2. After the culturing, the A549 cells were treated with of 5 ug/mL of lipopolysaccharide (LPS) and with 5 µM to 40 µM of gancaonin N, and the cells were then cultured for 24 hours. Afterwards, total RNA was isolated from each treated cell using Hybrid-RTM (GeneAll, South Korea). The isolated total RNA (500 ng) was converted to cDNA sequentially through incubation at 55°C for 60 minutes using oligo (dT) and incubation at 85°C for 5 minutes, and the cDNA was stored at 4°C until being used. In addition, real-time quantitative PCR was performed using Universal SYBR Green Master Mix (Applied Biosystems, USA), and the cDNA was amplified under conditions described below. 95°C for 15 minutes, then 95°C for 30 seconds, 59°C for 30 seconds, and 72°C for 30 seconds were repeated 40 times. […]\n(§2) To investigate the inhibitory effect of gancaonin on the expression levels of pro-inflammatory cytokines, the mRNA expression levels of tumor necrosis factor-α (hereinafter referred to as TNF-α), interleukin-1 beta (hereinafter referred to as IL-1β), and interleukin 6 (hereinafter referred to as IL-6) which are all known as pro-inflammatory cytokines were measured. […]"}, "iNOS": {"test_system": "iNOS", "experiment": "Western blotting of iNOS in LPS-stimulated RAW264.7 cells", "type": "cell-based, murine", "settings": "LPS 1 µg/mL, 5 to 40 µM, as treatment concentration increased (FIG. 2C)", "experimental": "(§3) RAW264.7 cells and A549 cells were dispensed into 6-well plates (1 × 10^6 cells/well) and cultured under conditions of 37°C and 5% CO2. After the culturing, the Raw 264.7 cells were treated with 1 µg/mL of lipopolysaccharide (LPS) and the A549 cells were treated with 5 µg/mL of lipopolysaccharide (LPS) and with 5 µM to 40 µM of gancaonin N, and the cells were cultured for 24 hours or 6 hours. Then, the cells were lysed using a lysis buffer. In addition, the left lung extracted from each mouse was lysed using RIPA buffer. SDS-PAGE electrophoresis was performed on the cell and tissue lysates to separate proteins by side, and 5% bovine serum albumin was used for culturing and for blocking antibodies against PGE2 (1:500), IL-1β (1:500), IL-6 (1:500), TNF-α (1:500), i-NOS (1:500), COX-2 (1:1000), P-ERK1/2 (1:1000), ERK1/2 (1:3000), P-p38 (1:1000), p38 (1:3000), NF-κB p65 (1:1000), Lamin B1 (1:1000), and β-actin (1: 5,000).\n(§4) To investigate the anti-inflammatory effect of gancaonin N, the inventors treated Raw264.7 cells with LPS and Gancaonin N, as described in Examples 1 to 6, and evaluated the expression level of inflammation-inducing factors. Thus, the inhibitory effect of gancaonin N on inflammation-related factors was specifically confirmed."}, "IL-6": {"test_system": "IL-6", "experiment": "Real-time PCR of IL-6 mRNA in LPS-stimulated A549 cells", "type": "cell-based, human", "settings": "LPS 5 ug/mL, 5 to 40 µM, 24 hours, effect proportional to amount (FIG. 3C)", "experimental": "as §1, §2"}, "COX-2 [2]": {"test_system": "COX-2", "experiment": "Western blotting of COX-2 in LPS-stimulated RAW264.7 cells", "type": "cell-based, murine", "settings": "LPS 1 µg/mL, 5 to 40 µM, as treatment concentration increased (FIG. 2D)", "experimental": "as §3, §4"}, "TNF-α": {"test_system": "TNF-α", "experiment": "Western blotting of TNF-α in lung of LPS-induced acute lung injury mouse model", "type": "in vivo, BALB/c mice", "settings": "mice, 10 mg/kg or 30 mg/kg intraperitoneally, LPS-induced ALI, Western blotting (FIG. 8)", "experimental": "(§5) 25 6-week-old female BALB/c mice having a weight of 18g to 20 g were purchased from BioLink (DBL CO., Eumseong, Chungcheongbuk-do, Korea), and reared in the animal laboratory of KyungHee University. To establish an LPS-induced acute lung injury model, all the mice were divided into five groups each group of which consisted of 5 mice, and the five groups were referred to as control, vehicle (only LPS treatment), gancaonin N (10 mg/kg), gancaonin N (30 mg/kg), and dexamethasone (3 mg/kg). Gancaonin N was intraperitoneally injected at a dose of 10 mg/kg or 30 mg/kg, and dexamethasone was intraperitoneally injected at a dose of 3 mg/kg as a positive control group. In addition, the control and vehicle groups were intraperitoneally injected with 4% DMSO in which gancaonin N was dissolved. Then, 10 µg/50 µL of LPS was intratracheally administered to the mice except for the control group one hour later (the control group mice were administered 50 µL of PBS), and the mice were sacrificed 12 hours later.\n(§6) RAW264.7 cells and A549 cells were dispensed into 6-well plates (1 × 10^6 cells/well) and cultured under conditions of 37°C and 5% CO2. […]\n(§7) To specifically investigate whether gancaonin N can inhibit pro-inflammatory factors in a mouse model, the protein expression levels of COX-2, IL-1β, and TNF-α were measured by Western blotting as described in Examples 1 to 6 above."}, "PGE2": {"test_system": "PGE2", "experiment": "Western blotting of PGE2 in LPS-stimulated RAW264.7 cells", "type": "cell-based, murine", "settings": "LPS 1 µg/mL, 5 to 40 µM, as treatment concentration increased (FIG. 2B)", "experimental": "as §3, §4"}, "IL-1β [3]": {"test_system": "IL-1β", "experiment": "Western blotting of IL-1β in lung of LPS-induced acute lung injury mouse model", "type": "in vivo, BALB/c mice", "settings": "mice, 10 mg/kg or 30 mg/kg intraperitoneally, LPS-induced ALI, Western blotting (FIG. 8)", "experimental": "as §5, §6, §7"}, "COX-2 [4]": {"test_system": "COX-2", "experiment": "Western blotting of COX-2 protein in LPS-stimulated A549 cells", "type": "cell-based, human", "settings": "LPS 5 µg/mL, 5 to 40 µM (FIG. 4D)", "experimental": "as §3\nFor the pro-inflammatory cytokines whose mRNA expression inhibition was confirmed as above, the expression level of the protein encoded by the mRNA was further checked. To determine the protein expression level, A549 cells were treated with LPS and gancaonin N as described in Examples 1 to 8, and the protein expression levels were checked."}}, "data": [{"smiles": "COc1ccc(-c2coc3cc(O)c(CC=C(C)C)c(O)c3c2=O)c(O)c1", "note": "[gancaonin N, 5,7-dihydroxy-3-(2-hydroxy-4-methoxyphenyl)-6-(3-methylbut-2-enyl)chromen-4-one]", "values": [{"measurement": "mRNA expression of IL-1β", "setting": "IL-1β [1]", "result": "significantly inhibited"}, {"measurement": "expression level of protein of iNOS", "setting": "iNOS", "result": "significantly decreased"}, {"measurement": "mRNA expression of IL-6", "setting": "IL-6", "result": "significantly inhibited"}, {"measurement": "expression level of protein of COX-2", "setting": "COX-2 [2]", "result": "significantly decreased"}, {"measurement": "protein expression level of TNF-α in lung", "setting": "TNF-α", "result": "significantly reduced"}, {"measurement": "expression level of protein of PGE2", "setting": "PGE2", "result": "significantly decreased"}, {"measurement": "protein expression level of IL-1β in lung", "setting": "IL-1β [3]", "result": "significantly reduced"}, {"measurement": "protein expression of COX-2", "setting": "COX-2 [4]", "result": "significantly inhibited"}]}]}
